In the test the test system is learning disorder after ischemia. Nature of the test: Effect of remedying learning disorder after ischemia (passive avoidance method). The format is in vivo, Mongolian gerbils. Particulars: p.o.; for Latent time (average ± S.E.): 1 h before 5-min ischemia, upper limit 300 sec, normal 246.5, control 71.5 sec; for Recovery ratio: normal = 100, control = 0. The method, then: Common carotid arteries on both sides of Mongolian gerbils (17 to 21 weeks old) were clipped with Skoville clamps without anesthesia and the clamps were removed after 5 min to realize a short period of ischemia. Twenty-four hours after the removal of the clamps, these animals were subjected to learning and memory tests were conducted after an additional 24 h. The learning and memory functions were examined by the passive avoidance method with a modification of a device reported by Jarvik and Kopp in "Psychological Reports", 21, 221 to 224 (1967). The device had two chambers, […] chamber A and a dark chamber B. In the tests, the animals were placed in the well-lighted chamber A and an electric current (A.C., 1.6 mA) was applied to a grid on the floor of the dark chamber B for 5 min when they entered the chamber B. On the next day, the animals subjected to the learning were placed in the chamber A and the time (latent time) which had elapsed before they entered the chamber B was measured. The upper limit of the latent time was set at 300 sec. The compound was administered in the form of a 5% suspension in acacia orally one hour before causing the ischemia. A 5% acacia solution was administered to the control group.

In the case of `O=C(CN1CCC(=Cc2ccc(F)cc2)CC1)c1ccc2ccccc2c1` [Example 74], the “Latent time (average ± S.E.)” value is, setting by setting: (3 mg/kg) 110.2 ± 29.0 s; (10 mg/kg) 123.2 ± 24.3 s; (30 mg/kg) 129.2 ± 23.8 s. Moreover, the Recovery ratio came to 22% (3 mg/kg), 30% (10 mg/kg) and 33% (30 mg/kg).

On to `c1ccc(CC2CCN(CCc3ccc4ccccc4c3)CC2)cc1` [Example 73], for which the “Latent time (average ± S.E.)” value is 193.1 ± 35.3 s (10 mg/kg) and 80.1 ± 28.2 s (30 mg/kg). Besides, the Recovery ratio is given as 69% (10 mg/kg) and 5% (30 mg/kg).

For the compound `Cl.O=C(CN1CCC(C(=O)c2ccc(F)cc2)CC1)c1ccc2ccccc2c1` [Example 12, 2-[4-(p-Fluorobenzoyl)-1-piperidinyl]-2'-acetonaphthone hydrochloride], the “Latent time (average ± S.E.)” value (3 mg/kg) was 168.8 ± 23.0 s, the “Latent time (average ± S.E.)” value (10 mg/kg) was determined as 196.8 ± 22.3 s and the “Latent time (average ± S.E.)” value (30 mg/kg) turned out to be 196.3 ± 37.0 s. Besides, the Recovery ratio was found to be 56% (3 mg/kg), 72% (10 mg/kg) and 71% (30 mg/kg).

Values taken from patent US4921863A, “Cyclic amine derivatives” (Eisai Co., Ltd., priority 1988, dated 1990).
